Key:
[1] = Stability of the compound in rat plasma incubated for 7 days; format: ADME, cell-free; conditions: 168 h, time 7 day
[2] = Stability of compound in mouse plasma incubated for 7 days; format: ADME, cell-free; conditions: 168 h, time 7 day
MES-SA = assay: Cytotoxicity against human MES-SA cells assessed as reduction in cell viability; format: functional, cell-based
MES-SA/Dx5 = assay: Cytotoxicity against human MES SA/DX5 cells assessed as reduction in cell viability; format: functional, cell-based
HEK-293T = assay: Cytotoxicity against HEK293T cells assessed as reduction in cell viability; format: cell-based; conditions: Homo sapiens

Stabilty [1] | Stabilty [2] | SMILES | EC50 (MES-SA) [nM] | EC50 (MES-SA/Dx5) [nM] | EC50 (HEK-293T) [nM]
Stable | Stable | COc1cccc2c1C(=O)c1c(O)c3c(c(O)c1C2=O)C[C@@](O)(c1csc(N(C)C(=O)[C@H](C)NC(=O)[C@@H](NC(=O)CN2C(=O)C=CC2=O)C(C)C)n1)C[C@@H]3O[C@H]1C[C@H]2[C@H](OC3[C@@H](OC)OCCN32)[C@H](C)O1 (stereo partly specified) |  |  | 
 |  | COc1cccc2c1C(=O)c1c(O)c3c(c(O)c1C2=O)C[C@@](O)(c1csc(N)n1)C[C@@H]3O[C@H]1C[C@H]2[C@H](O[C@@H]3[C@@H](OC)OCCN32)[C@H](C)O1 | 0.046 | 0.139 | 0.051
 |  | COc1cccc2c1C(=O)c1c(O)c3c(c(O)c1C2=O)C[C@@]1(C[C@@H]3O[C@H]2C[C@H]3[C@H](O[C@@H]4[C@@H](OC)OCCN43)[C@H](C)O2)OC(=O)OCC1=O | 0.0005 | 0.0009 | 0.00069
 |  | COc1cccc2c1C(=O)c1c(O)c3c(c(O)c1C2=O)C[C@@](O)(c1nnc(C)[nH]1)C[C@@H]3O[C@H]1C[C@H]2[C@H](O[C@@H]3[C@@H](OC)OCCN32)[C@H](C)O1 | 0.034 | > 15 | 0.033
 |  | COc1cccc2c1C(=O)c1c(O)c3c(c(O)c1C2=O)C[C@@](O)(c1csc(N(C)C)n1)C[C@@H]3O[C@H]1C[C@H]2[C@H](O[C@@H]3[C@@H](OC)OCCN32)[C@H](C)O1 | 0.07 | 0.113 | 0.065
 |  | COc1cccc2c1C(=O)c1c(O)c3c(c(O)c1C2=O)C[C@@](O)(c1csc(C)n1)C[C@@H]3O[C@H]1C[C@H]2[C@H](O[C@@H]3[C@@H](OC)OCCN32)[C@H](C)O1 | 0.0116 | 0.0101 | 0.012
 |  | COc1cccc2c1C(=O)c1c(O)c3c(c(O)c1C2=O)C[C@@](O)(C(=O)CO)C[C@@H]3O[C@H]1C[C@H]2[C@H](O[C@@H]3[C@@H](OC)OCCN32)[C@H](C)O1 | 0.0002 | 0.00038 | 0.00037
 |  | CNc1nc([C@]2(O)Cc3c(O)c4c(c(O)c3[C@@H](O[C@H]3C[C@H]5[C@H](O[C@@H]6[C@@H](OC)OCCN65)[C@H](C)O3)C2)C(=O)c2c(OC)cccc2C4=O)cs1 | 0.047 | 0.125 | 0.052
 |  | COc1cccc2c1C(=O)c1c(O)c3c(c(O)c1C2=O)C[C@@](O)(c1cnc(C)[nH]1)C[C@@H]3O[C@H]1C[C@H]2[C@H](O[C@@H]3[C@@H](OC)OCCN32)[C@H](C)O1 | 0.0017 | > 0.3 | 0.024

From ChEMBL document CHEMBL4673263, “Evaluation of PNU-159682 antibody drug conjugates (ADCs)” (Bioorg Med Chem Lett, 2020)
